Here are results for 23 molecules from patent US20030162818A1, “Acylsulfonamide derivative” (AJINOMOTO CO. INC., priority 1997, published 2003).

Molecules are shown by their SMILES.

Consider `CCCCCC(=O)NS(=O)(=O)c1ccccc1NC(=O)c1cccc(OCC2CCCCC2)c1` [Example 27, N-[2-(3-Cyclohexylmethoxybenzamido)benzenesulfonyl]hexanamide], for which the melting point lay in the range of 112 to 113 °C.
The molecule `CC(C)(C)C(=O)NS(=O)(=O)c1ccccc1NC(=O)c1ccc(C#Cc2ccccc2)cc1` [Example 41, N-[2-(4-Phenylethynylbenzamido)benzenesulfonyl]pivalamide] had a melting point of 236 to 237 °C.
The figure for `CCCCCC(=O)NS(=O)(=O)c1ccccc1NC(=O)c1cccc(OCc2ccccc2)c1` [Example 8, N-[2-(3-Benzyloxybenzamido)benzenesulfonyl]-n-hexanamide] is 133 to 134 °C.
As for `CC(=O)NS(=O)(=O)c1ccccc1NC(=O)c1cccc(OCc2ccc(C(C)(C)C)cc2)c1` [Example 29, N-[2-[3-(4-t-Butylbenzyloxy)benzamido]benzenesulfonyl]acetamide], the melting point was 190 to 191 °C.
Take `O=C(Nc1ccccc1S(=O)(=O)NC(=O)c1ccc(F)cc1F)c1cccc(OCc2ccccc2)c1` [Example 11, N-[2-(3-Benzyloxybenzamido)benzenesulfonyl]-2,4-difluorobenzamide]: the melting point fell in the range of 208 to 209 °C.
As for `CCCCNC(=O)NS(=O)(=O)c1ccccc1NC(=O)c1cccc(OCc2ccccc2)c1`, the figure is 177 to 178 °C; as for `CC(=O)NS(=O)(=O)c1ccccc1NC(=O)c1cccc(OCc2ccc(C(F)(F)F)cc2)c1` [Example 32, N-[2-[3-(4-Trifluoromethylbenzyloxy)benzamido]benzenesulfonyl]acetamide], 164 to 165 °C.
The figure for `CCCCCCCCNC(=O)NS(=O)(=O)c1ccccc1NC(=O)c1cccc(OCc2ccccc2)c1` is 124 to 125 °C; for `COc1ccc(COc2cccc(C(=O)Nc3ccccc3S(=O)(=O)NC(C)=O)c2)cc1` [Example 23, N-[2-[3-(4-methoxybenzyloxy)benzamido]benzenesulfonyl]acetamide] it is 114 to 117 °C.
The molecule `CC(=O)NS(=O)(=O)c1ccccc1NC(=O)c1cccc(OCc2ccccc2)c1` [Example 3, N-[2-(3-Benzyloxybenzamido)benzenesulfonyl]acetamide] registered a melting point of 195 to 196 °C.
Molecule `O=C(Nc1ccccc1S(=O)(=O)NC(=O)c1ccc([N+](=O)[O-])cc1)c1cccc(OCc2ccccc2)c1` [Example 5, N-[2-(3-Benzyloxybenzamido)benzenesulfonyl]-4-nitrobenzamide] returned a melting point of 233 to 234 °C.
The figure for `CC(=O)NS(=O)(=O)c1ccccc1NC(=O)c1ccc(C#Cc2ccccc2)cc1` [Example 38, N-[2-(4-Phenylethynylbenzamido)benzenesulfonyl]acetamide] is 214 to 215 °C; for `COc1ccc(C(=O)NS(=O)(=O)c2ccccc2NC(=O)c2cccc(OCc3ccccc3)c2)cc1` [Example 6, N-[2-(3-Benzyloxybenzamido)benzenesulfonyl]-4-methoxybenzamide] it is 189 to 190 °C.
As for `CCCCCCCOc1cccc(C(=O)Nc2ccccc2S(=O)(=O)NC(C)=O)c1` [Example 35, N-[2-(3-Heptyloxybenzamido)benzenesulfonyl]acetamide], the melting point is 194 to 195 °C.
The figure for `CCCCCC(=O)NS(=O)(=O)c1ccccc1NC(=O)c1cccc(OCc2ccc(OC)cc2)c1` [Example 24, N-[2-[3-(4-Methoxybenzyloxy)benzamido]benzenesulfonyl]hexanamide] is 154 to 157 °C; for `CC(C)=CC(=O)NS(=O)(=O)c1ccccc1NC(=O)c1ccc(C#Cc2ccccc2)cc1` [Example 42, 3-Methyl-N-[2-(4-phenylethynylbenzamido)benzenesulfonyl]-2-butenamide] it is 187 to 188 °C; for `CCCCCC(=O)NS(=O)(=O)c1ccccc1NC(=O)c1cccc(OCc2ccc([N+](=O)[O-])cc2)c1` [Example 21, N-[2-[3-(4-Nitrobenzyloxy)benzamido]benzenesulfonyl]hexanamide] it is 138 to 141 °C.
As for `CC(C)(C)C(=O)NS(=O)(=O)c1ccccc1NC(=O)c1cccc(OCc2ccc(C(C)(C)C)cc2)c1` [Example 12, N-[2-[3-(4-t-Butylbenzyloxy)benzamido]benzenesulfonyl]pivalamide], the figure is 193 to 194 °C; as for `CCCCCC(=O)NS(=O)(=O)c1ccccc1NC(=O)c1cccc(OCc2ccc(Cl)cc2)c1` [Example 18, N-[2-[3-(4-Chlorobenzyloxy)benzamido]benzenesulfonyl]hexanamide], 148 to 149 °C; as for `O=C(Nc1ccccc1S(=O)(=O)NC(=O)c1ccc(C(F)(F)F)cc1)c1cccc(OCc2ccccc2)c1` [Example 4, N-[2-(3-Benzyloxybenzamido)benzenesulfonyl]-4-trifluoromethylbenzamide], 220 to 221 °C.
With `O=C(Nc1ccccc1S(=O)(=O)NC(=O)c1cccc(OCc2ccccc2)c1)c1cccc(OCc2ccccc2)c1` [Example 1, N-[2-(3-Benzyloxybenzamido)benzenesulfonyl]-3-benzyloxybenzamide], the melting point was 172 to 173 °C.
As for `O=C(NS(=O)(=O)c1ccccc1NC(=O)c1cccc(OCc2ccccc2)c1)Oc1ccccc1`, the figure is 163 to 164 °C; as for `CCCCCCCOc1cccc(C(=O)Nc2ccccc2S(=O)(=O)NC(=O)CCCCC)c1` [Example 36, N-[2-(3-Heptyloxybenzamido)benzenesulfonyl]hexanamide], 200 to 201 °C.
